From patent publication US12295397B2, “Dietary peptides” (Diet4Life APS, priority 2015, dated 2025)
No end group written: not given here.

Columns and labels:
pepsin = pepsin (Homo sapiens, UniProt P0DJD8); experiment: Pepsin digestion of meat, resistance of peptide to pepsin degradation; format: in vitro ADME; conditions: present in proteolytic digests
Experimental: Minced meat is diluted 1-10 times with distilled water, adjusted to pH 1-3 with hydrochloric acid, and incubated with 0.01-10% pepsin (w/w) at 4-40° C. for ½-12 h with adequate mixing. Insoluble material is removed by centrifugation at 100-1000×g for 3-30 min, and supernatant is neutralized with NaOH. Using sterile conditions, low molecular weight peptides in supernatant are recovered by tangential ultrafiltration at 4-40° C. for ½-12 h, and excess water is evaporated at 25-50° C. for up to 12 h. The concentrated dialysate is tested for bioactivity with cells and used for further purification by HPLC.

[1] = Stability of peptides in Fetal Bovine Serum, remaining activity read out in intestinal cells; format: in vitro ADME; conditions: fold more stable than NT(8-13)
Experimental: All peptides were incubated at 10^−5 M with Fetal Bovine Serum (FBS; final concentration of 66.7%) (Sigma Aldrich, Denmark) at 37° C. for 3 hours. The peptide degradation was terminated using 1 M phosphoric acid (final 0.4 M, pH ˜1.2) and neutralized to pH 7.2-7.4 with NaOH before testing activity in intestinal cells. As for small intestine homogenates, a zero degradation control was included for each peptide.
DC7-2, NT, DKPYIL (SEQ ID NO: 8) and NT-(8-13) (final concentration of 10^-6 M) were incubated either with FBS or with 270× diluted intestinal homogenate at 37° C. for various time points with shaking. Degradation was stopped with 1 M phosphoric acid and the samples were subsequently neutralized and immediately tested with intestinal cells as described above. Control for zero degradation was included for each peptide as above. […]
(§1) Notes for Tables 1) Stability in serum is expressed as fraction of peptide activity left after 10 min of incubation in serum at 37° C. compared with undigested sample as described in Examples. 2) Stability in intestine is expressed as % activity left after 30 min incubation in intestine homogenate at 37° C. as described in Examples.

[2] = Stability of peptides in small intestine homogenate, remaining activity read out in intestinal cells; format: in vitro ADME, mice; conditions: fold more stable than NT(8-13)
Experimental: Small intestines from 20 Swiss-Webster males were homogenized in 350 ml Dulbecco's phosphate-buffered saline (PBS) (pH 7.4) (ThermoFischer Scientific, Denmark) with a IKA® basic 18 Ultra-Turrax tissue homogenizer set a speed 5 followed by filtration using 100 μm nylon mesh filter. Protein concentration was 6 mg/ml using the bicinconinic acid assay (ThermoFischer Scientific, Denmark) and bovine serum albumin as standard. The intestine homogenate was diluted 10 times in HBSS containing 25 mM HEPES (pH 7.4), and further diluted 30×, 90×, 270×, 810× or 2430× before incubation with peptides. All solutions were prewarmed to 37° C. before mixing with peptide solutions.
Peptides were incubated at 10^−5 M with dilutions of small intestine homogenate at 37° C. for 90 minutes with shaking. Reactions were stopped by addition of 1 M phosphoric acid (final 0.4 M, pH ˜1.2). Each peptide incubation mix was then neutralized with NaOH to pH 7.2-7.4 and immediately tested for activity in intestinal cells. […]
as §1

pepsin, sequence (P0DJD8 63-388): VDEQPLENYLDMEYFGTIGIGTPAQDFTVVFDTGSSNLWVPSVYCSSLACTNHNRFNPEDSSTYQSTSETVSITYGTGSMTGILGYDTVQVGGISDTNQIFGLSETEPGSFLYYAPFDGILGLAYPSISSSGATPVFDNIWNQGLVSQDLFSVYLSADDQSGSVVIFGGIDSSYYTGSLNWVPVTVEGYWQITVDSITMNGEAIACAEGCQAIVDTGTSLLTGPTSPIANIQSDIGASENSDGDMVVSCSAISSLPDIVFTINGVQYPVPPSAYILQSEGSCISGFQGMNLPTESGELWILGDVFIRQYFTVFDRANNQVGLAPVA

| Resistance to pepsin degradation (pepsin) | Stability in serum relative to neurotensin (8-13) RRPYIL [1] | Stability in intestine homogenate relative to neurotensin (8-13) RRPYIL [2] | Substance |
| --- | --- | --- | --- |
| resistant to pepsin degradation |  |  | ASDKPYIL [Peptide 36036, A SDKPYIL] |
|  | around 100 times | 100-1000 × | DKPYIL [Peptide 35978, D KPYIL] |
